Patent publication US20260207578A1, “COMPOUND BASED ON SULFUR/OXYGEN SUBSTITUTED GLUTARIMIDE-BASED ISOINDOLINONE SKELETON AND USE THEREOF” (Gluetacs Therapeutics (Shanghai) Co., LTD., priority 2022, published 2026)
pIC50: −log10 of the molar value.

What was measured:
IKZF1 = biological target: T1, IKZF1 (Homo sapiens, UniProt Q13422+Q96SW2); assay: Western-blot assay, substrate protein in hPBMCs; type: cell-based; conditions: hPBMC cells, 24 hours, tested at 50 nM and 500 nM, table does not say which
T1 construct: endogenous in cells; host or cells: human PBMCs (Milecell Biotechnologies)
T1 sequence (Q13422 whole entry): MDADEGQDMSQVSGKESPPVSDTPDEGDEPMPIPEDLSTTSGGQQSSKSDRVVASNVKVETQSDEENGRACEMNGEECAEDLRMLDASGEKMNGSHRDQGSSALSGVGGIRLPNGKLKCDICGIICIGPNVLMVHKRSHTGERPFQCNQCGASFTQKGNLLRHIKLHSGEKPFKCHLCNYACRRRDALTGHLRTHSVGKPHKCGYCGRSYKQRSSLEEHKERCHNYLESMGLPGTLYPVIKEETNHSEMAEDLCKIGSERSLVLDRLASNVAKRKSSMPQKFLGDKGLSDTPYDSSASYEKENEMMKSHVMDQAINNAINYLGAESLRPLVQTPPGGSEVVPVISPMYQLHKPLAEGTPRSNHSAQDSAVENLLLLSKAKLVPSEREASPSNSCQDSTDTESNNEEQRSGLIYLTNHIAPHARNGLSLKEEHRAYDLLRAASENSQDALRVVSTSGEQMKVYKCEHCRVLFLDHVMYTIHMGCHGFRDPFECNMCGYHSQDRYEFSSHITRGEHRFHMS
T1 sequence (Q96SW2 whole entry): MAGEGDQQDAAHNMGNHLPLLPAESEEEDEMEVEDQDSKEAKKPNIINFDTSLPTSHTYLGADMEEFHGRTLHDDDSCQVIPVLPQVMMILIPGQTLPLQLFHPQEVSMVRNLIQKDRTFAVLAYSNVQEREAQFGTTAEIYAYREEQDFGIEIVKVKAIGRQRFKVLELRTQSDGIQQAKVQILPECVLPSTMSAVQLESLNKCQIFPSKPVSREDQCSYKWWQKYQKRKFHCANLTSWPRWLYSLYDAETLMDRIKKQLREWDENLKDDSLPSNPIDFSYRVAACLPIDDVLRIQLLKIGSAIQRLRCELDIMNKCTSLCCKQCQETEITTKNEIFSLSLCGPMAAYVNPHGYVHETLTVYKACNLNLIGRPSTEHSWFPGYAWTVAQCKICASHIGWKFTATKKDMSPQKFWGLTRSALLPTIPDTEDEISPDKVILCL
T1 sequence (Q16531 whole entry partner): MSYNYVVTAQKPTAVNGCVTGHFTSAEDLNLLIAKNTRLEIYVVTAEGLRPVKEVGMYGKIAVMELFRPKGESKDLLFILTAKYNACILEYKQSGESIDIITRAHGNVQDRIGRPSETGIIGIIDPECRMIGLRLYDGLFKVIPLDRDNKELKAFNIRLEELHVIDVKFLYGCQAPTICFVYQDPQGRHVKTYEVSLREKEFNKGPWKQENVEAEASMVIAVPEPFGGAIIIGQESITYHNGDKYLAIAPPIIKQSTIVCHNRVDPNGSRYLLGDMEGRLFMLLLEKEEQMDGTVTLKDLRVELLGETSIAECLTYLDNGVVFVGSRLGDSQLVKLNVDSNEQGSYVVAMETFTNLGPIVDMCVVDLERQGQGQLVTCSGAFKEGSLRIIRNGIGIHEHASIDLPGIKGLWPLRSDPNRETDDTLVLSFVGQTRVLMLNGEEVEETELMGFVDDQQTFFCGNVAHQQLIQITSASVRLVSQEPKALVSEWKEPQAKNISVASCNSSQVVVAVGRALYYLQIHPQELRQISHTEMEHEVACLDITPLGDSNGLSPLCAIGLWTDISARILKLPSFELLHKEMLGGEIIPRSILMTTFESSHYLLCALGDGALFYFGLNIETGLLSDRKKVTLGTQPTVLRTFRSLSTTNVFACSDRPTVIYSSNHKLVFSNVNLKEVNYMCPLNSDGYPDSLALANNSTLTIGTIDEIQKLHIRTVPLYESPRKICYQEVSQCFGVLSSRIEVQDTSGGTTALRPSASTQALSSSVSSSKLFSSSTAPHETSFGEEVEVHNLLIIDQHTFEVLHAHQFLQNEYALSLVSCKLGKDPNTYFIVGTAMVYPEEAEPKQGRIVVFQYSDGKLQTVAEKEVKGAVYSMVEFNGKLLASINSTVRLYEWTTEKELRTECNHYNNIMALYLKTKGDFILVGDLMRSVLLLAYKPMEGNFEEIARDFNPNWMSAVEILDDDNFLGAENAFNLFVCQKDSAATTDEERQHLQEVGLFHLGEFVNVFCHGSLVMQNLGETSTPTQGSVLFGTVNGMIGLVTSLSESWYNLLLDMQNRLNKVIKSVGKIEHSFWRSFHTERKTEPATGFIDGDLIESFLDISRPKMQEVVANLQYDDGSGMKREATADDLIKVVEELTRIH
Procedure: The effect of the compounds of the present disclosure on the expression of target proteins in cells was detected using conventional Western blot analysis.
Human peripheral blood mononuclear cells (hPBMCs) at a density of 1×10^6 cells/mL were thawed according to the PBMC Recovery Protocol (Milecell Biotechnologies Inc, Shanghai). The cells were then treated with the compounds of the present disclosure (including the compounds listed in Tables 1 and 2, and the Examples A1-A20 and 1-116 compounds) at concentrations of 50 nM and 500 nM.
Controls included a negative control (DMSO) and a positive control (the commercial immunomodulatory drug lenalidomide), both processed following the identical experimental protocol as the compounds of the present disclosure. After 24 hours of compounds treatment, cells were harvested and lysed in RIPA protein lysate containing phosphatase inhibitors on ice for 30-60 min, followed by centrifugation. The supernatant was aspirated as the extracted total cell protein. The protein concentration of the supernatant was determined using the conventional BCA (Bicinchoninic Acid) assay. The supernatant was then mixed with 4× SDS sample loading buffer, denatured at 95° C. for 5 minutes, and then subjected to SDS-PAGE electrophoresis on a polyacrylamide gel. Proteins were then transferred to a nitrocellulose (NC) membrane, blocked at room temperature for 1-2 h, and processed for antibody incubation and detection according to the manufacturer's instructions (Cell Signaling Technology).
Half-Maximal Degradation Concentration value (the drug concentration required for degrading proteins by 50%, abbreviated as DC50) reads method: comparing the grayscale values of Western blot bands from drug-treated samples with those from blank DMSO-treated controls, and identifying the drug concentration range at which the grayscale value is half that of the DMSO-treated control bands.
DC50 values can be calculated using ImageJ software to measure grayscale values of Western blot bands from drug-treated samples. The concentration-response curve is fitted to estimate the drug concentration corresponding to half the grayscale value.
Target protein remaining (%) refers to the percentage of target protein remaining in hPBMC cells after treatment with protein degrader compounds.
Calculation method for protein remaining (%): Use ImageJ software to measure grayscale values of Western blot bands from drug (protein degrader)-treated samples. The grayscale value of drug-treated bands is divided by that of internal control protein bands, and the resulting quotient is normalized to obtain the relative percentage of remaining target protein after protein degrader treatment.
Target protein degradation rate (%)=100%−target protein remaining (%).

[1] = biological target: T2, human Cereblon WT GST-tagged protein (Homo sapiens, UniProt Q96SW2); assay: CRBN-binding affinity, HTRF (CEREBLON BINDING kit); conditions: displacement of Thalidomide-Re reagent, 3 hours at room temperature
T2 construct: purchased CISBIO 64BDCRBNPEH
T2 sequence (Q96SW2 whole entry): as the sequence (Q96SW2 whole entry) above
Summary of the method: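 Compounds displace a thalidomide-Re tracer from GST-tagged human Cereblon WT, detected with an Eu-labelled anti-GST antibody by time-resolved fluorescence. Signal at 620 nm was normalised against solvent and blank controls.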

Wee1 = biological target: T3, Wee1 (Homo sapiens, UniProt P30291+Q96SW2); assay: Western-blot assay, substrate protein in hPBMCs; type: cell-based; conditions: hPBMC cells, 24 hours, tested at 50 nM and 500 nM, table does not say which
T3 construct: endogenous in cells; host or cells: human PBMCs (Milecell Biotechnologies)
T3 sequence (P30291 whole entry): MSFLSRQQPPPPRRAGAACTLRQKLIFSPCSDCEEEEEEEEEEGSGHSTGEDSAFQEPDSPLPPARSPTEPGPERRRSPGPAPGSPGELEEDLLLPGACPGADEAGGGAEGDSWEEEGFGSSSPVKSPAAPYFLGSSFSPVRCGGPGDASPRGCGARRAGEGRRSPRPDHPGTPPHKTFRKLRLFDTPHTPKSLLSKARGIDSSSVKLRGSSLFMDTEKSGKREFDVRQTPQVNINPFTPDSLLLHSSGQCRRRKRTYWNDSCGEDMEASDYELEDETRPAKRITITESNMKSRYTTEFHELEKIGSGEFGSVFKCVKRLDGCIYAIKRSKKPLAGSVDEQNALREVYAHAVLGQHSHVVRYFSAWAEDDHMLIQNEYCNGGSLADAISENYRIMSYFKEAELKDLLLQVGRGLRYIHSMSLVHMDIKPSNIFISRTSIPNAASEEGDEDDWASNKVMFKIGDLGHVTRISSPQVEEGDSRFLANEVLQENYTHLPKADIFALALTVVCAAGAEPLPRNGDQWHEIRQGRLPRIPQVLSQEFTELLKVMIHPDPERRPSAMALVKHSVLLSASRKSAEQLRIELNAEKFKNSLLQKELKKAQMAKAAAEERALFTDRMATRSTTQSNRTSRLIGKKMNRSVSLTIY
T3 sequence (Q96SW2 whole entry): as the sequence (Q96SW2 whole entry) above
T3 sequence (Q16531 whole entry partner): as the sequence (Q16531 whole entry partner) above
Summary of the method: (§1)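 Cellular protein levels after a 24 h degrader treatment of human PBMCs were assessed by Western blot densitometry relative to an internal control. Results are expressed as % remaining, % degraded, or DC50 versus DMSO-treated cells.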

GSPT1 = biological target: T4, GSPT1 (Homo sapiens, UniProt P15170+Q96SW2); assay: Western-blot assay, substrate protein in hPBMCs; type: cell-based; conditions: hPBMC cells, 24 hours, tested at 50 nM and 500 nM, table does not say which
T4 construct: endogenous in cells; host or cells: human PBMCs (Milecell Biotechnologies)
T4 sequence (P15170 whole entry): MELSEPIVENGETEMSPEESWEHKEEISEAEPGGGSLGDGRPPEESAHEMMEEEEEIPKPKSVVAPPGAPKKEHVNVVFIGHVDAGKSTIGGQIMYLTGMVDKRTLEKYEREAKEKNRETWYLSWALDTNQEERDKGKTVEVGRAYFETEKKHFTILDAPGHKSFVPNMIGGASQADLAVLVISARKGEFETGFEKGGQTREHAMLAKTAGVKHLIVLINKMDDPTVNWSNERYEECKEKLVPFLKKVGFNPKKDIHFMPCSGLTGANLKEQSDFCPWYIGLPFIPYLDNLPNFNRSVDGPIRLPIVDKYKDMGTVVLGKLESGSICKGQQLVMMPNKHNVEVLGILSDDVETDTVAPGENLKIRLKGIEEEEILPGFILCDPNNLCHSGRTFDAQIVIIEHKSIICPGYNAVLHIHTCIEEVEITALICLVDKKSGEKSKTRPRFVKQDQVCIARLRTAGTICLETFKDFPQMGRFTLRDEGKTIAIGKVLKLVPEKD
T4 sequence (Q96SW2 whole entry): as the sequence (Q96SW2 whole entry) above
T4 sequence (Q16531 whole entry partner): as the sequence (Q16531 whole entry partner) above
Summary of the method: as §1

IKZF2 = biological target: T5, IKZF2 (Homo sapiens, UniProt Q96SW2+Q9UKS7); assay: Western-blot assay, substrate protein in hPBMCs; type: cell-based; conditions: hPBMC cells, 24 hours, tested at 50 nM and 500 nM, table does not say which
T5 construct: endogenous in cells; host or cells: human PBMCs (Milecell Biotechnologies)
T5 sequence (Q9UKS7 whole entry): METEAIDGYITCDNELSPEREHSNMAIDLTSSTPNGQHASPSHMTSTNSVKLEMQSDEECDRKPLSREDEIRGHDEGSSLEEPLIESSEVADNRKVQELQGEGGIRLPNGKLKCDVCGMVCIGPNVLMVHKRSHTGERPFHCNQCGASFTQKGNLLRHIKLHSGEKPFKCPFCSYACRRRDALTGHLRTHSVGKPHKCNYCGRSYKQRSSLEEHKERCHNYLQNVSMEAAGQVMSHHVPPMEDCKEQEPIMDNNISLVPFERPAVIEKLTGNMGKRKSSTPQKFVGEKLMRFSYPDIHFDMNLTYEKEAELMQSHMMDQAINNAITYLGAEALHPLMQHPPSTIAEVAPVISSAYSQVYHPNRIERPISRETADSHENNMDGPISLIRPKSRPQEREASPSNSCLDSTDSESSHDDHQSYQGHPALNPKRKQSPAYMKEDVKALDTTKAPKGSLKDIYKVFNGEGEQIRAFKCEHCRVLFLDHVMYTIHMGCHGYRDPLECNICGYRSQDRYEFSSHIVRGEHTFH
T5 sequence (Q96SW2 whole entry): as the sequence (Q96SW2 whole entry) above
T5 sequence (Q16531 whole entry partner): as the sequence (Q16531 whole entry partner) above
Summary of the method: as §1

CK1α = biological target: T6, CK1α (Homo sapiens, UniProt P48729+Q96SW2); assay: Western-blot assay, substrate protein in hPBMCs; type: cell-based; conditions: hPBMC cells, 24 hours, tested at 50 nM and 500 nM, table does not say which
T6 construct: endogenous in cells; host or cells: human PBMCs (Milecell Biotechnologies)
T6 sequence (P48729 whole entry): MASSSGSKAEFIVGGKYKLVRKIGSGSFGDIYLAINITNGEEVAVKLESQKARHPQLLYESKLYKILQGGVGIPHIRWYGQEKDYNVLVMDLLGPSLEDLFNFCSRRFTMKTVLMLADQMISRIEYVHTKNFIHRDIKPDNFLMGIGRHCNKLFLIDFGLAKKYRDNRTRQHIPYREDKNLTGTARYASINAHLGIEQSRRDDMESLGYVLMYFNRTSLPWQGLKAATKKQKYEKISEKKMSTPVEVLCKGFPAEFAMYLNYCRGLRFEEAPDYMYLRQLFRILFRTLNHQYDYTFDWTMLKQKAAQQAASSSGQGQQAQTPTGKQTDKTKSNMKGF
T6 sequence (Q96SW2 whole entry): as the sequence (Q96SW2 whole entry) above
T6 sequence (Q16531 whole entry partner): as the sequence (Q16531 whole entry partner) above
Summary of the method: as §1

pIC50 [1] | Compound | substrate protein remaining % (IKZF1) | substrate protein remaining % (Wee1) | substrate protein remaining % (GSPT1) | substrate protein remaining % (IKZF2) | substrate protein remaining % (CK1α)
> 6.30 | O=C1CCC(N2Cc3cc(OC4CN(Cc5ccc(-c6ccco6)s5)C4)ccc3C2=O)C(=O)N1 (centres unmarked) [GT-06562, 3-(5-((1-((5-(furan-2-yl)thiophen-2-yl)methyl)azetidin-3-yl)oxy)-1-oxoisoindolin-2-yl)piperidine-2,6-dione] | A (0%≤ substrate protein remaining % ≤80%) | A (0%≤ substrate protein remaining % ≤80%) | A (0%≤ substrate protein remaining % ≤80%) |  | 
6.00 to 6.30 | O=C1CCC(N2Cc3cc(SC4CN(Cc5ccc(-c6ccc(Cl)cc6)cc5)C4)ccc3C2=O)C(=O)N1 (centres unmarked) [GT-06226, 3-(5-((1-((4′-chloro-[1,1′-biphenyl]-4-yl)methyl)azetidin-3-yl)thio)-1-oxoisoindolin-2-yl)piperidine-2,6-dione] | A (0%≤ substrate protein remaining % ≤80%) | A (0%≤ substrate protein remaining % ≤80%) |  |  | 
6.00 to 6.30 | CC1(C)CCC(C(=O)N2CC(Sc3ccc4c(c3)CN(C3CCC(=O)NC3=O)C4=O)C2)=C(c2ccc(Cl)cc2)C1 (centres unmarked) [GT-06137, 3-(5-((1-(4′-chloro-5,5-dimethyl-3,4,5,6-tetrahydro-[1,1′-biphenyl]-2-carbonyl)azetidin-3-yl)thio)-1-oxoisoindolin-2-yl)piperidine-2,6-dione] | A (0%≤ substrate protein remaining % ≤80%) | A (0%≤ substrate protein remaining % ≤80%) | A (0%≤ substrate protein remaining % ≤80%) |  | 
> 6.30 | CC1(C)CCC(C(=O)N2CCC(Oc3ccc4c(c3)CN(C3CCC(=O)NC3=O)C4=O)C2)=C(c2ccc(Cl)cc2)C1 (centres unmarked) [GT-06816, 3-(5-((1-(4′-chloro-5,5-dimethyl-3,4,5,6-tetrahydro-[1,1′-biphenyl]-2-carbonyl)pyrrolidin-3-yl)oxy)-1-oxoisoindolin-2-yl)piperidine-2,6-dione] |  | A (0%≤ substrate protein remaining % ≤80%) | A (0%≤ substrate protein remaining % ≤80%) | A (0%≤ substrate protein remaining % ≤80%) | A (0%≤ substrate protein remaining % ≤80%)
6.00 to 6.30 | O=C1CCC(N2Cc3cc(SC4CN(C(c5ccc(F)cc5)c5ccc(F)cc5)C4)ccc3C2=O)C(=O)N1 (centres unmarked) [GT-06503, 3-(5-((1-(bis(4-fluorophenyl)methyl)azetidin-3-yl)thio)-1-oxoisoindolin-2-yl)piperidine-2,6-dione] | A (0%≤ substrate protein remaining % ≤80%) | A (0%≤ substrate protein remaining % ≤80%) | A (0%≤ substrate protein remaining % ≤80%) |  | A (0%≤ substrate protein remaining % ≤80%)
> 6.30 | O=C1CCC(N2Cc3cc(SC4CC5(CCN(C(c6ccccc6)c6ccccc6)CC5)C4)ccc3C2=O)C(=O)N1 (centres unmarked) [GT-06920, 3-(5-((7-benzhydryl-7-azaspiro[3.5]nonan-2-yl)thio)-1-oxoisoindolin-2-yl)piperidine-2,6-dione] | A (0%≤ substrate protein remaining % ≤80%) | A (0%≤ substrate protein remaining % ≤80%) |  |  | 
> 6.30 | O=C1CCC(N2Cc3cc(OC4CN(C(c5ccccc5)c5cccnc5)C4)ccc3C2=O)C(=O)N1 (centres unmarked) [GT-06760, 3-(1-oxo-5-((1-(phenyl(pyridin-3-yl)methyl)azetidin-3-yl)oxy)isoindolin-2-yl)piperidine-2,6-dione] | A (0%≤ substrate protein remaining % ≤80%) | A (0%≤ substrate protein remaining % ≤80%) |  | A (0%≤ substrate protein remaining % ≤80%) | 
> 6.30 | CC1(C)CCC(CN2CC(Sc3ccc4c(c3)CN(C3CCC(=O)NC3=O)C4=O)C2)=C(c2ccc(Cl)cc2)C1 (centres unmarked) [GT-03464, 3-(5-((1-((4′-chloro-5,5-dimethyl-3,4,5,6-tetrahydro-[1,1′-biphenyl]-2-yl)methyl)azetidin-3-yl)thio)-1-oxoisoindolin-2-yl)piperidine-2,6-dione] | A (0%≤ substrate protein remaining % ≤80%) | A (0%≤ substrate protein remaining % ≤80%) | A (0%≤ substrate protein remaining % ≤80%) |  | A (0%≤ substrate protein remaining % ≤80%)
> 6.30 | O=C1CCC(N2Cc3cc(OC4CC5CN(C(=O)c6ccccc6-c6ccc(Cl)cc6)CC5C4)ccc3C2=O)C(=O)N1 (centres unmarked) [GT-06954, 3-(5-((2-(4′-chloro-[1,1′-biphenyl]-2-carbonyl)octahydro-cyclopenta[c]pyrrol-5-yl)oxy)-1-oxoisoindolin-2-yl)piperidine-2,6-dione] | A (0%≤ substrate protein remaining % ≤80%) | A (0%≤ substrate protein remaining % ≤80%) | A (0%≤ substrate protein remaining % ≤80%) | A (0%≤ substrate protein remaining % ≤80%) | 
> 6.30 | O=C1CCC(N2Cc3cc(OC4CN(C(c5ccccc5)c5ccccn5)C4)ccc3C2=O)C(=O)N1 (centres unmarked) [GT-06559, 3-(1-oxo-5-((1-(phenyl(pyridin-2-yl)methyl)azetidin-3-yl)oxy)isoindolin-2-yl)piperidine-2,6-dione] |  | A (0%≤ substrate protein remaining % ≤80%) | A (0%≤ substrate protein remaining % ≤80%) | A (0%≤ substrate protein remaining % ≤80%) | A (0%≤ substrate protein remaining % ≤80%)
6.00 to 6.30 | O=C1CCC(N2Cc3cc(OC4CN(C(c5cccc(F)c5)c5cccc(F)c5)C4)ccc3C2=O)C(=O)N1 (centres unmarked) [GT-06352, 3-(5-((1-(bis(3-fluorophenyl)methyl)azetidin-3-yl)oxy)-1-oxoisoindolin-2-yl)piperidine-2,6-dione] | A (0%≤ substrate protein remaining % ≤80%) |  | A (0%≤ substrate protein remaining % ≤80%) |  | A (0%≤ substrate protein remaining % ≤80%)
5.72 to 6.00 | CC1(C)CCC(CN2CC(Sc3cccc4c3C(=O)N(C3CCC(=O)NC3=O)C4)C2)=C(c2ccc(Cl)cc2)C1 (centres unmarked) [GT-06812, 3-(7-((1-((4′-chloro-5,5-dimethyl-3,4,5,6-tetrahydro-[1,1′-biphenyl]-2-yl)methyl)azetidin-3-yl)thio)-1-oxoisoindolin-2-yl)piperidine-2,6-dione] | A (0%≤ substrate protein remaining % ≤80%) | A (0%≤ substrate protein remaining % ≤80%) | A (0%≤ substrate protein remaining % ≤80%) |  | 
> 6.30 | O=C1CCC(N2Cc3cc(SC4CN(Cc5cccc(-c6ccc(Cl)cc6)c5)C4)ccc3C2=O)C(=O)N1 (centres unmarked) [GT-06225, 3-(5-((1-((4′-chloro-[1,1′-biphenyl]-3-yl)methyl)azetidin-3-yl)thio)-1-oxoisoindolin-2-yl)piperidine-2,6-dione] | A (0%≤ substrate protein remaining % ≤80%) |  | A (0%≤ substrate protein remaining % ≤80%) |  | 
 | O=C1CCC(N2Cc3cccc(SC4CNC4)c3C2=O)C(=O)N1 (centres unmarked) [GT-06994, 3-(7-(azetidin-3-ylthio)-1-oxoisoindolin-2-yl)piperidine-2,6-dione] | A (0%≤ substrate protein remaining % ≤80%) |  |  | A (0%≤ substrate protein remaining % ≤80%) | 
